The test system of one data set is P. falciparum strain 3D7. As to the kind of experiment: Antimalarial activity, P. falciparum lactate dehydrogenase growth inhibition assay. Particulars: for IC50: Plasmodium falciparum; for fold decrease in antimalarial activity with respect to the reference compounds BR-23 / BR-25: Fg-9, Fa-21, Fg-14 vs BR-23, Ff-1, Ff-7, Ff-3 vs BR-25. In kind it is cell-based, Plasmodium falciparum. On the procedure: Parasites of the P. falciparum strain 3D7 were grown in fresh group 0 positive human erythrocytes, obtained from the Centro Regional de Transfusion Sanguínea-SAS (Granada, Spain) and suspended at 5% haematocrit in RPMI 1640 containing 2% human serum, 0.2% NaHCO3, 0.5% Albumax II, 150 μM hypoxanthine, and […] gentamicin. Flasks were incubated at 37 °C, under 5% CO2 and 95% air mixture. […] The stock culture was then diluted with complete medium and non-parasitized erythrocytes to yield a haematocrit of 2% and parasitemia of 0.25%. Stock solutions of the test drugs were prepared at an initial concentration of 200 mM in DMSO, serially diluted and dispensed into triplicate in 96-well plates to yield final concentrations ranging from 0.0039 to 2 μM. The final well volume was 200 μL with a final concentration of DMSO 0.001%. Each plate also included positive growth controls, where only medium were added, and negative growth controls with 100 nM of chloroquine. […] A multidrop dispenser was used to add 50 μL of synchronized parasite culture per well. After 72 h of growth in presence of test compounds, the plates were stored frozen at −20 °C for at least 24 h. Next, they were thawed at room temperature. Parasite growth inhibition assays and IC50 determinations were carried out following the P. falciparum lactate dehydrogenase assay where parasite viability is quantified by measuring LDH activity upon APAD+ addition, a cofactor that is specific to the Plasmodium enzyme. To evaluate LDH activity, 140 μL of freshly made reaction mix, containing 143 mM sodium L-lactate, 143 μM APAD, 178.75 μM NBT, 1 U/mL diaphorase, 0.7% Tween 20 and 100 mM Tris-HCl (pH 8.0) were dispensed into plates. After 10 min of incubation in the dark at room temperature, absorbance was measured at 630 nm with a vmax precision multiwell plate reader from Molecular Devices, by using the accompanying SOFT maxPro software for analysis.

A further data set deals with T1, PfCK (Plasmodium falciparum, UniProt Q8IM71).
T1 construct: A truncated form of PfCK (Δ79-440) featuring an N-terminal 6× His-tag; 6xHis (N); host or cells: Escherichia coli BL21 (DE3) Star
As to the kind of experiment: Spectrophotometric coupled enzymatic assay for PfCK activity (substrate choline). Type of data set: biochemical. Particulars: for remaining activity at 25 µM: read-out: PfCK Fractional Activity at 25 µM; for IC50: IC50 PfCK b (compound concentration required to inhibit PfCK enzyme by 50%), substrate choline 4 mM, ATP 2 mM. As for the experimental part: A truncated form of PfCK (Δ79-440) featuring an N-terminal 6× His-tag was purchased from Genescript (Piscataway, NJ, USA), cloned into a pET-28a vector and transformed into Escherichia coli BL21 (DE3) Star cells (Invitrogen, Carlsbad, CA, USA). The transformed bacteria were cultured in Luria-Bertani (LB) medium at 37 °C until OD600 = 0.6 and the expression was induced with 1 mM isopropyl β-D-1-thiogalactopyranoside (IPTG). The cell culture was grown overnight at 20 °C and 180 rpm. Cells were pelleted by centrifugation at 10,000 rpm, resuspended in 50 mM Tris/HCl pH 7.5, 500 mM NaCl, 0.2 mM phenylmethylsulphonyl fluoride (PMSF, Sigma Aldrich, St. Luis, MO, USA), DNase (Sigma Aldrich, St. Luis, MO, USA), 0.5 mM β-mercaptoethanol (Sigma Aldrich, St. Luis, MO, USA) and sonicated. Separation of the soluble from the insoluble fraction was obtained by centrifugation at 15,000 rpm and 4 °C. The target enzyme was purified by a two-step purification protocol. In the first step, the cell lysate was incubated for 45 min with Ni-NTA resin (Qiagen, Venlo, The Netherlands) in a gravity column. Then, the column was washed with 40 column volumes (CV) of 50 mM Tris/HCl pH 7.5, 300 mM NaCl, 10 mM imidazole and 1 CV of 50 mM Tris/HCl pH 7.5, 300 mM NaCl, 40 mM imidazole. Finally, the His-tagged enzyme was eluted from the column using a 50 mM Tris/HCl pH 7.5, 300 mM NaCl, 400 mM imidazole buffer. A subsequent size-exclusion chromatography step was implemented to further polish the sample using a HiPrep 26/60 Sephacryl 100 HR column (GE Healthcare, Little Chalfont, Buckinghamshire, UK) previously equilibrated with 20 mM Tris/HCl pH 7.5, 150 mM NaCl buffer. This second purification step afforded a pure protein sample. The protein production yield was estimated to be nearly 2.5 mg of recombinant enzyme per liter of bacterial culture.
A spectrophotometric 96-well plate assay for PfCK activity was established based on an assay previously described. The reaction mix was composed as follows: 100 mM Tris/HCl pH 7.5, 100 mM KCl, 10 mM MgCl2, 0.5 mM phosphoenolpyruvate, 0.25 mM NADH, 4 U of pyruvate kinase, 5 U lactate dehydrogenase, 2 mM ATP, 4 mM choline chloride and different concentrations of the selected compounds. All the necessary compounds for the assay were purchased from Sigma Aldrich (St. Luis, MO, USA) and the final assay volume was 200 μL. The enzymatic reaction was initiated by the addition of the enzyme at less than 10 nM concentration and the reaction rates were measured by monitoring the decrease in the absorbance at 340 nm for 20 min at room temperature using a Spark10M instrument (Tecan). Finally, the IC50 values for each compound were determined by plotting the enzyme fractional activity (f.a.) against the logarithm of compound concentration (log[I]). Curve-fitting was performed with a dose-response curve from Origin (OriginLab Corporation, Northampton, MA, USA), using the following equation: f.a.=1/1+10^logIC50−logI
All data points were collected in triplicate and the final dose-response curves were plotted with MATLAB (R2018a (9.4.0.813654), 2018, MathWorks, Natick, MA, USA). See curves in Figure S1 in Supplementary Materials.

The mark [1] stands for this setting: Erythrocyte, P. falciparum 3D7 in human erythrocytes, 72 h, LDH readout, read-out: IC50 a (In vitro IC50 values against P. falciparum).

SMILES strings stand for the structures. Like-named read-outs stand apart in the source and are kept apart here.

T1 sequence (Q8IM71 entry or part of it): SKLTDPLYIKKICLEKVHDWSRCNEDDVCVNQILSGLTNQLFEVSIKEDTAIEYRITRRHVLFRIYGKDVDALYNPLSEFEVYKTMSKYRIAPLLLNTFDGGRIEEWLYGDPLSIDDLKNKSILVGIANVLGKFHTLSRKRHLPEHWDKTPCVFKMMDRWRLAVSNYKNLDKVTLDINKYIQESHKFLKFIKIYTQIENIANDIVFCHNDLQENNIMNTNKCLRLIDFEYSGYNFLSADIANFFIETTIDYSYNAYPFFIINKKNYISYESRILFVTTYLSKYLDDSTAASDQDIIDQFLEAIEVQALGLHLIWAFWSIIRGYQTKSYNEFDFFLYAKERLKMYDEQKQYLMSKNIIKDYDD

`[Br-].[Br-].c1cc2c(s1)c(N1CCCCCC1)nc[n+]2Cc1ccc(-c2ccc(C[n+]3cnc(N4CCCCCC4)c4sccc43)cn2)nc1` [Fa-26, 1,1’-([2,2’-bipyridine]-5,5’-diylbis(methylene))bis(4-(azepan-1-yl)thieno[3,2-d]pyrimidin-1-ium) bromide] displayed a melting point of 310 to 312 °C. Besides, the IC50 in the data set on P. falciparum strain 3D7 (setting [1]) was found to be 209 nM. Also, the remaining activity at 25 µM on PfCK came to 78 ± 8.13%.

`[Br-].[Br-].c1cc2c(s1)c(N1CCCCC1)nc[n+]2Cc1ccc(-c2ccc(C[n+]3cnc(N4CCCCC4)c4sccc43)cn2)nc1` [Fa-27, 1,1’-([2,2’-bipyridine]-5,5’-diylbis(methylene))bis(4-(piperidin-1-yl)thieno[3,2-d]pyrimidin-1-ium) bromide] had a melting point of 307 to 309 °C. Besides, the IC50 with P. falciparum strain 3D7 (setting [1]) was 120 nM. Further, the remaining activity at 25 µM on PfCK was determined as 82.6 ± 4.9%.

As to `[Br-].[Br-].c1cc2c(s1)c(N1CCCCC1)nc[n+]2Cc1ccc(OCCOc2ccc(C[n+]3cnc(N4CCCCC4)c4sccc43)cc2)cc1` [Fa-28, 1,1′-(((ethane-1,2-diylbis(oxy))bis(4,1-phenylene))bis(methylene))bis(4-(piperidin-1-yl)thieno[3,2-d]pyrimidin-1-ium) bromide], the melting point was 198 to 200 °C. For the same compound, in the data set with P. falciparum strain 3D7 (setting [1]), the IC50 was 47.1 nM. Moreover, on PfCK, the remaining activity at 25 µM was determined as 84.4 ± 7.53%.

In the case of `[Br-].[Br-].c1cc2c(s1)c(N1CCCCCC1)nc[n+]2Cc1ccc(CCCCc2ccc(C[n+]3cnc(N4CCCCCC4)c4sccc43)cc2)cc1` [Fa-29, (1,1’((butane1,4diylbis(4,1phenylene))bis(methylene))bis(4-(azepan-1-yl)thieno[3,2-d]pyrimidin-1-ium)) bromide], the melting point lay in the range of 268 to 270 °C. In the data set with P. falciparum strain 3D7 (3D7, Erythrocyte, 72 h, read-out: IC50 a (In vitro IC50 values against P. falciparum)), the IC50 stood at 55.6 nM. Besides, on PfCK, the IC50 is 4640 ± 200 nM and the remaining activity at 25 µM was 46.7 ± 9.49%.

With `[Br-].[Br-].c1cc2c(s1)c(N1CCCCC1)nc[n+]2Cc1ccc(CCCCc2ccc(C[n+]3cnc(N4CCCCC4)c4sccc43)cc2)cc1` [Fa-33, 1,1’-((butane-1,4-diylbis(4,1-phenylene))bis(methylene))bis(4-(piperidin-1-yl)thieno[3,2-d]pyrimidin-1-ium) bromide], the melting point is 276 to 278 °C. In the data set on P. falciparum strain 3D7 (setting [1]), the IC50 was determined as 43.9 nM. For the same compound, the remaining activity at 25 µM at PfCK worked out at 68.8 ± 6.03%.

Compound `[Br-].[Br-].c1cc2c(s1)c(N1CCCC1)cc[n+]2Cc1ccc(OCCOc2ccc(C[n+]3ccc(N4CCCC4)c4sccc43)cc2)cc1` [Ff-2, 4,4’-(((ethane-1,2-diylbis(oxy))bis(4,1-phenylene))bis(methylene))bis(7-(pyrrolidin-1-yl)thieno[3,2-b]pyridin-4-ium) bromide] displayed a melting point of 280 to 282 °C. Moreover, in the data set on P. falciparum strain 3D7 (setting [1]), the IC50 came to 74 nM. The remaining activity at 25 µM at PfCK came to 81.8 ± 3.93%.

In the case of `[Br-].[Br-].c1cc2c(N3CCCC3)nc[n+](Cc3ccc(OCCOc4ccc(C[n+]5cnc(N6CCCC6)c6ccsc65)cc4)cc3)c2s1` [Ff-4, 1,1’-(((ethane-1,2-diylbis(oxy))bis(4,1-phenylene))bis(methylene))bis(4-(pyrrolidin-1-yl)thieno[2,3-d]pyrimidin-1-ium) bromide], the melting point was 193 to 195 °C. Besides, the IC50 with P. falciparum strain 3D7 (3D7, Erythrocyte, infected erythrocytes, P. falciparum, read-out: antimalarial activity (IC50), as given in the text) was about 11 nM. Moreover, in the data set on P. falciparum strain 3D7 (setting [1]), the IC50 came to 11.5 nM. At PfCK, half-maximal inhibition (IC50) required 37400 ± 3240 nM and the remaining activity at 25 µM was 90.7 ± 4.57%.

`[Br-].[Br-].c1cc2c(N3CCCCC3)nc[n+](Cc3ccc(OCCOc4ccc(C[n+]5cnc(N6CCCCC6)c6ccsc65)cc4)cc3)c2s1` [Ff-5, 1,1′-(((ethane-1,2-diylbis(oxy))bis(4,1-phenylene))bis(methylene))bis(4-(piperidin-1-yl)thieno[2,3-d]pyrimidin-1-ium) bromide] came in with a melting point of over 280 °C. In the data set with P. falciparum strain 3D7 (setting [1]), the IC50 stood at 22.4 nM. Besides, the remaining activity at 25 µM at PfCK came to 91.1 ± 4.27%.

`[Br-].[Br-].c1cc2c(s1)c(N1CCCC1)nc[n+]2Cc1ccc(CCCCc2ccc(C[n+]3cnc(N4CCCC4)c4sccc43)cc2)cc1` [Ff-7, 1,1’-((butane-1,4-diylbis(4,1-phenylene))bis(methylene))bis(4-(pyrrolidin-1-yl)thieno[3,2-d]pyrimidin-1-ium) bromide] displayed a melting point of 215 to 217 °C. Also, the “fold decrease in antimalarial activity with respect to the reference compounds BR-23 / BR-25” value with P. falciparum strain 3D7 turned out to be 10 fold. For the same compound, the half-maximal inhibitory concentration (IC50) in the data set with P. falciparum strain 3D7 (setting [1]) is 21.9 nM. Also, at PfCK, the IC50 is 13300 ± 3820 nM and the remaining activity at 25 µM turned out to be 55 ± 4.07%.

In turn, `[Br-].[Br-].c1cc2c(s1)c(N1CCCC1)nc[n+]2Cc1ccc(OCCOc2ccc(C[n+]3cnc(N4CCCC4)c4sccc43)cc2)cc1` [Ff-8, 1,1’-(((ethane-1,2-diylbis(oxy))bis(4,1-phenylene))bis(methylene))bis(4-(pyrrolidin-1-yl)thieno[3,2-d]pyrimidin-1-ium) bromide] returned a melting point of 217 to 219 °C. In the data set on P. falciparum strain 3D7 (setting [1]), the 50% inhibitory concentration (IC50) came out at 35.2 nM. Besides, the remaining activity at 25 µM on PfCK worked out at 63.1 ± 6.74%.

Turning to `[Br-].[Br-].c1cc2c(N3CCCC3)nc[n+](Cc3ccc(-c4ccc(C[n+]5cnc(N6CCCC6)c6ccsc65)cc4)cc3)c2s1` [Fg-14, 1,1’-([1,1’-biphenyl]-4,4’-diylbis(methylene))bis(4-(pyrrolidin-1-yl)thieno[2,3-d]pyrimidin-1-ium) bromide], the melting point lay in the range of 300 to 302 °C. The “fold decrease in antimalarial activity with respect to the reference compounds BR-23 / BR-25” value with P. falciparum strain 3D7 came out at 10 fold. Also, the IC50 in the data set with P. falciparum strain 3D7 (setting [1]) is 20.6 nM.

Consider `[Br-].[Br-].c1cc2c(N3CCCCCC3)nc[n+](Cc3ccc(CCc4ccc(C[n+]5cnc(N6CCCCCC6)c6ccsc65)cc4)cc3)c2s1` [Fg-19, 1,1’-((ethane-1,2-diylbis(4,1-phenylene))bis(methylene))bis(4-(azepan-1-yl)thieno[2,3-d]pyrimidin-1-ium) bromide], for which the melting point was in the range of 298 to 300 °C. In addition, the IC50 with P. falciparum strain 3D7 (setting [1]) stood at 71.5 nM.

One may read the IC50 as the concentration needed to halve the response being measured. Broadly, the melting point is the temperature, or range, at which the solid turns liquid.

For the origin of these results see publication PMC8621770, “New Compounds with Bioisosteric Replacement of Classic Choline Kinase Inhibitors Show Potent Antiplasmodial Activity” (Pharmaceutics, 2021).
